# According to patent US6399642B2, “Benzimidazole topoisomerase poisons” (Rutgers, The State University of New Jersey, priority 1998, dated 2002):
# Target: T1, human topoisomerase I (Homo sapiens, UniProt P11387)
# T1 construct: unnamed fusion partner (recombinant fusion protein); made in house
# T1 sequence (P11387 1-765): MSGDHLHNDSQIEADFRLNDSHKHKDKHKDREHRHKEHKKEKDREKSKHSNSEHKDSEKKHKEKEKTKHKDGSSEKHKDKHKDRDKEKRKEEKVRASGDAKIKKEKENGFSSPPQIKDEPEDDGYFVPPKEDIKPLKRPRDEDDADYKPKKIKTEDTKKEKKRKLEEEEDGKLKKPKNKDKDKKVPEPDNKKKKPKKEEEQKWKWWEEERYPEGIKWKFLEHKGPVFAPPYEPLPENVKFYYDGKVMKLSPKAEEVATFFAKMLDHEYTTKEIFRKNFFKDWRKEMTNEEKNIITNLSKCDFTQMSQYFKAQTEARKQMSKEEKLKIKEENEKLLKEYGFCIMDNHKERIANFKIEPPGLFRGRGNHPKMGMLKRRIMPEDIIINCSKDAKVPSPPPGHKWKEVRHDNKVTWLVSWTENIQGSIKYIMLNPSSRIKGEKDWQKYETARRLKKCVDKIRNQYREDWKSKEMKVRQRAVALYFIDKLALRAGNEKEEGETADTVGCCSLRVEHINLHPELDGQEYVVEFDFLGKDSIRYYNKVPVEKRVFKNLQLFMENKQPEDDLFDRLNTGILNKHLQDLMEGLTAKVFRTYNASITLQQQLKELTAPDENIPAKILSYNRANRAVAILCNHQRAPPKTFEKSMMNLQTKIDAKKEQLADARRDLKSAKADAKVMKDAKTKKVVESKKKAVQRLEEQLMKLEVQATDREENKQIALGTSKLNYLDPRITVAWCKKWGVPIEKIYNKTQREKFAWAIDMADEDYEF
# Test: Test A. Topoisomerase I Cleavage Assay
# Format: biochemical
# Conditions: concentration relative to compound 5 producing the same cleavage on plasmid DNA in the presence of human topoisomerase I
# Description: Test A. Topoisomerase I Cleavage Assay.
# Representative compounds of the invention were evaluated in a cleavage assay using recombinant topoisomerases I. This assay was preformed as described by B. Gatto et al. Cancer Res., 1996, 56, 2795-2800. Human topoisomerase I was isolated as a recombinant fusion protein using a T7 expression system. Plasmid YEpG was purified by the alkali lysis method followed by phenol deproteination and CsCl/ethidium isopycnic centrifiigation as described by Maniatis, T.; Fritsch, E. F.; Sambrook, J. Molecular Cloning, a Laboratory Manual; Cold Spring Harbor Laboratory: Cold Spring Harbor, N.Y. 1982; pp 149-185. The end-labeling of the plasmid was accomplished by digestion with a restriction enzyme followed by end-filling with Klenow polymerase as previously described by Liu, L. F.; Rowe, T. C.; Yang, L.; Tewey, K. M.; Chen, G. L. “Cleavage of DNA by mammalian topoisomerase II,” J. Biol. Chem. 1983, 258, 15365. […] Topoisomerase I cleavage values are reported as REC, Relative Effective Concentration (i.e., concentrations relative to compound 5, whose value is arbitrarily assumed as 1) that is able to produce the same cleavage on the plasmid DNA in the presence of human topoisomerase I.
structure (smiles),measurement,value
"FC(F)(F)c1nc2cc(-c3nc4cc(-c5nc6cc(-c7ccccc7)ccc6[nH]5)ccc4[nH]3)ccc2[nH]1 [Compound 5, 5-Phenyl-2-[2′(2″-trifluoromethylbenzimidazol-5″yl)benzimidazol-5′-yl]benzimidazole]","Topoisomerase I cleavage, REC (Relative Effective Concentration)",1
